Structures are written as SMILES.

Conditions in all cases: read-out: IC50 (nM)^1 / Martinostat
One assay concerns the target T1, HDAC11 (Homo sapiens, UniProt Q96DB2).
T1 sequence (Q96DB2 1-347): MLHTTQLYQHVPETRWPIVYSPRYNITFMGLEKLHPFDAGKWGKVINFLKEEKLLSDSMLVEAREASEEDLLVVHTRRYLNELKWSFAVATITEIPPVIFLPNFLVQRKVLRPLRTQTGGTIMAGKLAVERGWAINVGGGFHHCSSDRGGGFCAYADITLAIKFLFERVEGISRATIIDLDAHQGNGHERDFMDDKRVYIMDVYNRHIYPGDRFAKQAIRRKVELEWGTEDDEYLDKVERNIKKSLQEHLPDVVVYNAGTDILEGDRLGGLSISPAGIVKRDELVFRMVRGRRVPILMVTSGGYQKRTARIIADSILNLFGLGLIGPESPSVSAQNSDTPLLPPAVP
The assay is described as follows: fluorescence HDAC isoenzyme activity assay. The assay is classed as biochemical.

In another assay the target is T2, HDAC6 (Homo sapiens, UniProt Q9UBN7).
T2 sequence (Q9UBN7 1-1215): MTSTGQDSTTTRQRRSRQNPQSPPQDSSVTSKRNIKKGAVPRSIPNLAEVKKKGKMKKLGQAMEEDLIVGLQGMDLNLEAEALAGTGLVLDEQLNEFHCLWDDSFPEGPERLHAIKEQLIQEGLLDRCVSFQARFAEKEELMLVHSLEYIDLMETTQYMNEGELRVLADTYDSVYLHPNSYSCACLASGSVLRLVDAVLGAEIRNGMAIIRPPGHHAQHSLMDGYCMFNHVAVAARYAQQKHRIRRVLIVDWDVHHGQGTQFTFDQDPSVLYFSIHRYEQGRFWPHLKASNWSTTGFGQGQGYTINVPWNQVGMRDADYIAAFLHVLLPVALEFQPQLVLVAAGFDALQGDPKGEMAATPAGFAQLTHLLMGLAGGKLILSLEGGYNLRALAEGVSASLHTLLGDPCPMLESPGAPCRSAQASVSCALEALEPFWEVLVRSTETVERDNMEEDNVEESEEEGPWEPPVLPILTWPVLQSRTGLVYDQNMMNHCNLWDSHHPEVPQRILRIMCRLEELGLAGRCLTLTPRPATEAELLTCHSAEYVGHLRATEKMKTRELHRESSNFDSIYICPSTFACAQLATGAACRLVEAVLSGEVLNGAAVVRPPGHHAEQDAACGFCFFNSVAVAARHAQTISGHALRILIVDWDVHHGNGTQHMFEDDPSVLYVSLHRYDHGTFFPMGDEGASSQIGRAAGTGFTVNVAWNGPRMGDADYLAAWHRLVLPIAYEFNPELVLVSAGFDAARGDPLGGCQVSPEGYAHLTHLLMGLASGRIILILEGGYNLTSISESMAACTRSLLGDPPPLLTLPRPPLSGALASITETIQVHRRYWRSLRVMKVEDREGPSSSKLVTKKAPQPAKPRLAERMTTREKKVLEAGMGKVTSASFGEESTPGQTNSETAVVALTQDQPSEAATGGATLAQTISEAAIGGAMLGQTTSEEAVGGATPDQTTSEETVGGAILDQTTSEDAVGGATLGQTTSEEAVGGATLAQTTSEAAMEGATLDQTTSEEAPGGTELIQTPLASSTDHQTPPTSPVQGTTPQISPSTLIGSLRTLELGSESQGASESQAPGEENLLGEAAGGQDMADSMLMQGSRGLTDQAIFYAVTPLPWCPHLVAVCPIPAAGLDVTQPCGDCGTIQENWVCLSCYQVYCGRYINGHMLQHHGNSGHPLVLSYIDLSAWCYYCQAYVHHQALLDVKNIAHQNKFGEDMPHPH
The assay is described as follows: fluorescence HDAC isoenzyme activity assay. The assay is classed as biochemical.

The target in the next assay is T3, HDAC10 (Homo sapiens, UniProt Q969S8).
T3 sequence (Q969S8 1-669): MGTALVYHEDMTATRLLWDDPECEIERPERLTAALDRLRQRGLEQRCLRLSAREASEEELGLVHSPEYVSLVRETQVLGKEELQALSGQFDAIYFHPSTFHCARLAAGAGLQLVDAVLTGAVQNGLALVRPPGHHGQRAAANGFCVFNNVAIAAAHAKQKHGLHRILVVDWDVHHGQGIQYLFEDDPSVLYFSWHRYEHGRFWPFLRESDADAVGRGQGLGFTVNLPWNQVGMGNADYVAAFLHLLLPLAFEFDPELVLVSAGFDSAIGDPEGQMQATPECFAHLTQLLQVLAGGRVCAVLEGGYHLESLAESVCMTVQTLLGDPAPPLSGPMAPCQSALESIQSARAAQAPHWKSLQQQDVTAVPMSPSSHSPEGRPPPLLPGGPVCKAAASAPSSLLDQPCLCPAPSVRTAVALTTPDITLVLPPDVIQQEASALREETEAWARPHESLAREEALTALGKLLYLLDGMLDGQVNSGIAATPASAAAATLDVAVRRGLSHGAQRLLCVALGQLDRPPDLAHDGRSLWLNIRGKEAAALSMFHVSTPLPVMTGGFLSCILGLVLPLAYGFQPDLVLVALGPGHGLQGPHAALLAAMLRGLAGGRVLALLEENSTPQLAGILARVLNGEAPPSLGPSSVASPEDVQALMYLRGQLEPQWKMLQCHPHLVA
Briefly: fluorescence HDAC isoenzyme activity assay. The assay is classed as biochemical.

The target of another assay is HDAC2 (Homo sapiens, UniProt Q92769). The assay is described as follows: fluorescence HDAC isoenzyme activity assay. The assay is classed as biochemical.
In a further assay the target is HDAC3 (Homo sapiens, UniProt O15379). Briefly: fluorescence HDAC isoenzyme activity assay. The assay is classed as biochemical.
Another assay has as its target HDAC1 (Homo sapiens, UniProt Q13547). The assay is described as follows: fluorescence HDAC isoenzyme activity assay. The assay is classed as biochemical.
In a further assay the target is T4, HDAC8 (Homo sapiens, UniProt Q9BY41).
T4 sequence (Q9BY41 1-377): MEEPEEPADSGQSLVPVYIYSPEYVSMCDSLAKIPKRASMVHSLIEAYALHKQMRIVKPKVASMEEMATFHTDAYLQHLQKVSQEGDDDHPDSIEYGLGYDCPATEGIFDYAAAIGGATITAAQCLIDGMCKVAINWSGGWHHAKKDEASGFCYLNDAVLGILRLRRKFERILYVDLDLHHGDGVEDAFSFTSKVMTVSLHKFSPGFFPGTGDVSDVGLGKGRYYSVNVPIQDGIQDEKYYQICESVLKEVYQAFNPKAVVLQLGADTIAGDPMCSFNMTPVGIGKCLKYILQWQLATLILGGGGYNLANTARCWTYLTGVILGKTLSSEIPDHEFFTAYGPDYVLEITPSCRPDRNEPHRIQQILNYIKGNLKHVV
The assay is described as follows: biochemical. More on the design: Fluorescence HDAC isoenzyme deacetylase activity assay, excitation 360 nm, emission 460 nm. How it is done:
HDAC activity assays were performed as previously reported. The fluorescence signal was measured using a SpectraMax i3x fluorimeter (Molecular Devices Korea) with SoftMax Pro software at an excitation wavelength of 360 nm and an emission wavelength of 460 nm. […] We conducted total HDAC activity assays to assess the effect of martinostat on the deacetylase activity in vitro.

HDAC3, sequence (O15379 whole entry): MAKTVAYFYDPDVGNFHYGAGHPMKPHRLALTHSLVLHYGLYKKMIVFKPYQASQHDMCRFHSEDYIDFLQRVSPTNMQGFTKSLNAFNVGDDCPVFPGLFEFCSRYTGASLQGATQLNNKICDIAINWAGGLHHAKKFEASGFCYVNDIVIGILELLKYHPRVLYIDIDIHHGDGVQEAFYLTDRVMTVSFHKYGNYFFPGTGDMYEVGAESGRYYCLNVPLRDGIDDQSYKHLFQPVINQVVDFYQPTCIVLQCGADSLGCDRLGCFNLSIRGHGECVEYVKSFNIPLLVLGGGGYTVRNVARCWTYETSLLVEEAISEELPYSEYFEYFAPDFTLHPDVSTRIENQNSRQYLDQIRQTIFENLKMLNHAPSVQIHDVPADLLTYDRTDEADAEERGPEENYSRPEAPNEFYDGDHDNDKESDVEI
HDAC1, sequence (Q13547 whole entry): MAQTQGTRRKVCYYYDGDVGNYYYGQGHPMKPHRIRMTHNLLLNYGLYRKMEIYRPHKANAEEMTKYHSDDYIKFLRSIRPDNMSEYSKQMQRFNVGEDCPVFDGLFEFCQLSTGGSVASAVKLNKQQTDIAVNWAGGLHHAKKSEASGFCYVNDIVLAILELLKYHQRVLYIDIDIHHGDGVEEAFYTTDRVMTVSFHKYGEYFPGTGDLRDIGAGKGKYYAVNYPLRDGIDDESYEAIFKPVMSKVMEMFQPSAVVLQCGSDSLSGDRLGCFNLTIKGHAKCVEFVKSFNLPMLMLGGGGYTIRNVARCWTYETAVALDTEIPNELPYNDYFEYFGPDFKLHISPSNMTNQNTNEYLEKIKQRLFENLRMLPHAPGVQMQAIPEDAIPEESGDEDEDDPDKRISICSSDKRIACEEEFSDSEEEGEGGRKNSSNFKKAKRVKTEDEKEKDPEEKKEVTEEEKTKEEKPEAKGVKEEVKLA
HDAC2, sequence (Q92769 whole entry): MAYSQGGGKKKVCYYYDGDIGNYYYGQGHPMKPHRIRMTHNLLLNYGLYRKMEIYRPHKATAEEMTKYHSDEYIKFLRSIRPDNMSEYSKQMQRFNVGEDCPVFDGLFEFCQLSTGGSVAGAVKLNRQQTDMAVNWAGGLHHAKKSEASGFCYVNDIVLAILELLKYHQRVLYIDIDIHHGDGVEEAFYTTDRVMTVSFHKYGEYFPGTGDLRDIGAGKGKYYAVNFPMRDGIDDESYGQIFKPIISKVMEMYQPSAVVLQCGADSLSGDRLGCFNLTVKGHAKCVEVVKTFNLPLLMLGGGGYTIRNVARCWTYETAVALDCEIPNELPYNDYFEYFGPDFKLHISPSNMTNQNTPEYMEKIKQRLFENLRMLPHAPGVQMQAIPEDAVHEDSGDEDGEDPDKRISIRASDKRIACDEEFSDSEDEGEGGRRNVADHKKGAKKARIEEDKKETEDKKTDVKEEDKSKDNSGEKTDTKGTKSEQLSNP

For the compound `CN(Cc1ccc(/C=C/C(=O)NO)cc1)CC12CC3CC(CC(C3)C1)C2` [martinostat], the IC50 on HDAC11 stood at 34 ± 1 nM; at HDAC6, 70 ± 7 nM; at HDAC10 it was 72 ± 7 nM; on HDAC2, 61 ± 7 nM; at HDAC3, 79 ± 8 nM; at HDAC1, 80 ± 3 nM. The IC50 at HDAC8 turned out to be 1650 ± 155 nM.

Values taken from paper PMC12269308, “Martinostat as a novel HDAC inhibitor to overcome tyrosine kinase inhibitor resistance in chronic myeloid leukemia” (Clinical Epigenetics, 2025).
